# Data reported in patent US20230337677A1, “ARYL AND PYRIDYL AMIDE PESTICIDES AND COMPOSITIONS THEREOF” (University of Florida Research Foundation, Incorporated, priority 2019, published 2023).
# “Also recorded” adds a separate entry of the source.
# Tested on: Aedes aegypti mosquitoes, insecticide-susceptible Orlando strain
# Assay: not given
# Type: in vivo
# Conditions: screened at 100 μg/cm^2; 1 h; strain not given
# Experimental: The tubes as shown were held horizontally on the bench.
# For assessing behavioral repellency (FIG. 1), Aedes aegypti mosquitoes were used from the insecticide-susceptible Orlando strain and the pyrethroid-resistant Puerto Rico strain. Sixteen female mosquitoes were transferred to a glass tube (12.5 cm long, 2.5 cm outer diameter) with the ends covered with netting. Each compound was dissolved in 1 mL of acetone and serial dilutions ranging from 30-0.01 μg/ml were made. Circular filter papers (5 cm^2) were saturated with 50 μL of each concentration and allowed 10 min for solvent evaporation. The filter papers were then placed in clear conical polypropylene caps and fixed to the end of the glass tubes. The netting prevented mosquito contact with the filter paper. The tubes were then aligned with a mark denoting the midline and the proportion of mosquitoes on the chemically treated side was scored for up to 60 min. At the end of the test, the tube was placed in a cage and the ability of the mosquitoes to fly out of the tube was assessed for 30 min. […] This post-test evaluated whether any non-responding mosquitoes (not repelled) resulted from intoxication or disorientation from the test chemical. For assessment of lethality, insects were held for 24 hr under constant exposure in glass tubes having treated filter papers.
# Compounds were first screened at 100 μg/cm^2 for repellency and 24 h mortality.
row,SMILES,"1 h % Repellency, 100 μg/cm^2"
1,CC(C)(F)C(=O)Nc1ccccc1C(F)(F)F [MTFI-5-5A],82%
2,CC(C)(C)c1cccc(NC(=O)CCl)c1 [MTFI-5-7A],6%
3,CCCCC(=O)Nc1cccc(OC(F)(F)F)c1 [MTFI-5-9A],50%

# Same assay, conditions: structure-activity analysis of Table 2
row,SMILES,"vapor repellency / mortality, statement in words (Example 8)"
1,CC(C)(F)C(=O)Nc1ccccc1C(F)(F)F [MTFI-5-5A],reduced repellency; also recorded: little to no activity

# Tested on: Aedes aegypti strain Orlando (sensitive)
# Assay: Topical toxicity (24 hour mortality), Ae. aegypti Orlando
# Type: in vivo
# Conditions: Table 5; topical, 24 h
# Experimental: (§1) The Aedes aegypti strains Orlando (sensitive) as well as the Puerto Rico (PR, resistant to permethrin) were used. The Anopheles gambiae (G3 sensitive strain, as well as Akron kdr (Akdr) strain, resistant to pyrethroids were also assessed. The larvae were provided by the USDA, Gainesville Fl, and raised in a pan with tap water maintained at 28° C. Larvae were fed a ground liver and yeast mixture, and pupae were placed in emergence cages. Adults were held at 28° C. and provided with cotton balls soaked in 10% sugar water for rearing and for all bioassays.
# (§2) Female adults from 3 to 6 days were used for the experiments. The drug was dissolved in ethanol and then applied with a micro-applicator on the thorax, between the legs: 200 nL of drug per female mosquito, with different concentrations of the drug; 10 mosquitos were treated together per concentration per replicate, and put together in a small container with free access to sweet water. Mortality, i.e. no visible movement, was assessed 24 hours after treatment. Every compound was assessed on at least 3 different cohorts of mosquitoes, and the LD50 values and slopes were determined with Probit analysis, corrected with Abbott's formula.
row,SMILES,Ae. aegypti OR LD50
1,O=C(Nc1cc(Cl)nc(C(F)(F)F)c1)C(F)(F)C(F)(F)C(F)(F)F [compound 56],17.30 ng/mg

# Same assay, conditions: topical application, 24 h mortality, female adults, susceptible Orlando strain
row,SMILES,Ae. aegypti OR LD50
1,O=C(Nc1cc(Br)nc(Br)c1)C(F)(F)C(F)(F)F [GMR041],50 ng/mg
2,O=C(Nc1cc(Br)nc(Br)c1)C(F)(F)C(F)(F)C(F)(F)F [GMR042],24 ng/mg
3,O=C(Nc1cc(F)nc(F)c1)C(F)F [GMR043],2480 ng/mg
4,O=C(Nc1cc(F)nc(F)c1)C(F)(F)F [GMR044],1996 ng/mg
5,O=C(Nc1cc(F)nc(F)c1)C(F)(F)C(F)(F)F [GMR045],302 ng/mg
6,O=C(Nc1cc(F)nc(F)c1)C(F)(F)C(F)(F)C(F)(F)F [GMR046],300 ng/mg
7,Cc1cc(NC(=O)C(F)F)cc(C)n1 [GMR047],>3000 ng/mg
8,Cc1cc(NC(=O)C(F)(F)F)cc(C)n1 [GMR048],>1500 ng/mg
9,Cc1cc(NC(=O)C(F)(F)C(F)(F)F)cc(C)n1 [GMR049],>3000 ng/mg
10,Cc1cc(NC(=O)C(F)(F)C(F)(F)C(F)(F)F)cc(C)n1 [GMR050],>3000 ng/mg
11,O=C(Nc1cc(Cl)nc(Cl)c1)C(F)(F)C(F)(F)C(F)(F)C(F)(F)C(F)(F)F [GMR051],23.4 ng/mg
12,O=C(CCCC(F)(F)F)Nc1cc(Cl)nc(Cl)c1 [GMR052],2743 ng/mg
13,O=C(Nc1cc(F)nc(F)c1)C(F)(F)C(F)(F)C(F)(F)C(F)(F)C(F)(F)F [GMR072],114 ng/mg
14,O=C(Nc1c(Cl)c(Cl)nc(Cl)c1Cl)C(F)(F)C(F)(F)C(F)(F)F [GMR074],29 ng/mg
15,O=C(Nc1cc(Cl)nc(Cl)c1)C(F)(F)C(F)(F)OC(F)(F)F [GMR084],17.8 ng/mg
16,CC(C)(C)OC(=O)N(C(=O)C(F)(F)C(F)(F)C(F)(F)F)c1cc(Cl)nc(Cl)c1 [GMR087],54.6 ng/mg
17,N#CC(F)(F)C(=O)Nc1cc(Cl)nc(Cl)c1 [GMR101],1841 ng/mg

# Tested on: Anopheles gambiae G3 sensitive strain
# Assay: Topical toxicity (24 hour mortality), An. gambiae G3
# Type: in vivo
# Conditions: Table 5; topical, 24 h
# Experimental: as §1, §2
row,SMILES,An. gambiae G3 LD50
1,O=C(Nc1cc(Cl)nc(C(F)(F)F)c1)C(F)(F)C(F)(F)C(F)(F)F [compound 56],6.50 ng/mg

# Same assay, conditions: topical application, 24 h mortality, female adults, susceptible strain G3
row,SMILES,An. gambiae G3 LD50
1,O=C(Nc1cc(Br)nc(Br)c1)C(F)(F)C(F)(F)F [GMR041],~100 ng/mg
2,O=C(Nc1cc(Br)nc(Br)c1)C(F)(F)C(F)(F)C(F)(F)F [GMR042],11.4 ng/mg
3,O=C(Nc1cc(F)nc(F)c1)C(F)F [GMR043],>100 ng/mg
4,O=C(Nc1cc(F)nc(F)c1)C(F)(F)F [GMR044],>100 ng/mg
5,O=C(Nc1cc(F)nc(F)c1)C(F)(F)C(F)(F)F [GMR045],>100 ng/mg
6,O=C(Nc1cc(F)nc(F)c1)C(F)(F)C(F)(F)C(F)(F)F [GMR046],>100 ng/mg
7,Cc1cc(NC(=O)C(F)F)cc(C)n1 [GMR047],>100 ng/mg
8,Cc1cc(NC(=O)C(F)(F)F)cc(C)n1 [GMR048],>100 ng/mg
9,Cc1cc(NC(=O)C(F)(F)C(F)(F)F)cc(C)n1 [GMR049],>100 ng/mg
10,Cc1cc(NC(=O)C(F)(F)C(F)(F)C(F)(F)F)cc(C)n1 [GMR050],>100 ng/mg
11,O=C(Nc1cc(Cl)nc(Cl)c1)C(F)(F)C(F)(F)C(F)(F)C(F)(F)C(F)(F)F [GMR051],5.2 ng/mg
12,O=C(CCCC(F)(F)F)Nc1cc(Cl)nc(Cl)c1 [GMR052],>100 ng/mg
13,O=C(Nc1cc(F)nc(F)c1)C(F)(F)C(F)(F)C(F)(F)C(F)(F)C(F)(F)F [GMR072],11.00 ng/mg
14,O=C(Nc1c(Cl)c(Cl)nc(Cl)c1Cl)C(F)(F)C(F)(F)C(F)(F)F [GMR074],11.00 ng/mg
15,O=C(Nc1cc(Cl)nc(Cl)c1)C(F)(F)C(F)(F)OC(F)(F)F [GMR084],6.04 ng/mg
16,CC(C)(C)OC(=O)N(C(=O)C(F)(F)C(F)(F)C(F)(F)F)c1cc(Cl)nc(Cl)c1 [GMR087],23.00 ng/mg
17,N#CC(F)(F)C(=O)Nc1cc(Cl)nc(Cl)c1 [GMR101],>100 ng/mg

# Tested on: Anopheles gambiae Akron kdr (Akdr) strain, resistant to pyrethroids
# Assay: Topical toxicity (24 hour mortality), An. gambiae Akdr
# Type: in vivo
# Conditions: 24 h LD50 resistant strain (AKDR)/24 h LD50 susceptible strain (G3)
# Experimental: as §1, §2
row,SMILES,An. gambiae RR (resistance ratio)
1,O=C(Nc1cc(Br)nc(Br)c1)C(F)(F)C(F)(F)C(F)(F)F [GMR042],0.4
2,O=C(Nc1cc(Cl)nc(Cl)c1)C(F)(F)C(F)(F)C(F)(F)C(F)(F)C(F)(F)F [GMR051],0.7
3,O=C(Nc1cc(F)nc(F)c1)C(F)(F)C(F)(F)C(F)(F)C(F)(F)C(F)(F)F [GMR072],1.5
4,O=C(Nc1c(Cl)c(Cl)nc(Cl)c1Cl)C(F)(F)C(F)(F)C(F)(F)F [GMR074],0.8
5,O=C(Nc1cc(Cl)nc(Cl)c1)C(F)(F)C(F)(F)OC(F)(F)F [GMR084],1.8
6,CC(C)(C)OC(=O)N(C(=O)C(F)(F)C(F)(F)C(F)(F)F)c1cc(Cl)nc(Cl)c1 [GMR087],0.9

# Same assay, conditions: Table 5; topical, 24 h
row,SMILES,An. gambiae AKDR LD50
1,O=C(Nc1cc(Cl)nc(C(F)(F)F)c1)C(F)(F)C(F)(F)C(F)(F)F [compound 56],5.30 ng/mg

# Same assay, conditions: topical application, 24 h mortality, female adults, pyrethroid-resistant Akdr strain
row,SMILES,An. gambiae AKDR LD50
1,O=C(Nc1cc(Br)nc(Br)c1)C(F)(F)C(F)(F)F [GMR041],~100 ng/mg
2,O=C(Nc1cc(Br)nc(Br)c1)C(F)(F)C(F)(F)C(F)(F)F [GMR042],4.7 ng/mg
3,O=C(Nc1cc(F)nc(F)c1)C(F)F [GMR043],>100 ng/mg
4,O=C(Nc1cc(F)nc(F)c1)C(F)(F)F [GMR044],>100 ng/mg
5,O=C(Nc1cc(F)nc(F)c1)C(F)(F)C(F)(F)F [GMR045],>100 ng/mg
6,O=C(Nc1cc(F)nc(F)c1)C(F)(F)C(F)(F)C(F)(F)F [GMR046],>100 ng/mg
7,Cc1cc(NC(=O)C(F)F)cc(C)n1 [GMR047],>100 ng/mg
8,Cc1cc(NC(=O)C(F)(F)F)cc(C)n1 [GMR048],>100 ng/mg
9,Cc1cc(NC(=O)C(F)(F)C(F)(F)F)cc(C)n1 [GMR049],>100 ng/mg
10,Cc1cc(NC(=O)C(F)(F)C(F)(F)C(F)(F)F)cc(C)n1 [GMR050],>100 ng/mg
11,O=C(Nc1cc(Cl)nc(Cl)c1)C(F)(F)C(F)(F)C(F)(F)C(F)(F)C(F)(F)F [GMR051],3.7 ng/mg
12,O=C(CCCC(F)(F)F)Nc1cc(Cl)nc(Cl)c1 [GMR052],>100 ng/mg
13,O=C(Nc1cc(F)nc(F)c1)C(F)(F)C(F)(F)C(F)(F)C(F)(F)C(F)(F)F [GMR072],17 ng/mg
14,O=C(Nc1c(Cl)c(Cl)nc(Cl)c1Cl)C(F)(F)C(F)(F)C(F)(F)F [GMR074],8.6 ng/mg
15,O=C(Nc1cc(Cl)nc(Cl)c1)C(F)(F)C(F)(F)OC(F)(F)F [GMR084],11.00 ng/mg
16,CC(C)(C)OC(=O)N(C(=O)C(F)(F)C(F)(F)C(F)(F)F)c1cc(Cl)nc(Cl)c1 [GMR087],20.50 ng/mg
17,N#CC(F)(F)C(=O)Nc1cc(Cl)nc(Cl)c1 [GMR101],>100 ng/mg

# Tested on: Aedes aegypti mosquitoes, insecticide-susceptible Orlando strain
# Assay: not given
# Conditions: 24 h; LC50 (OR)
row,SMILES,"24 h LC50, μg/cm^2"
1,O=C(Nc1cc(F)cc(F)c1)C(F)(F)C(F)(F)F [GMR188],4.9 μg/cm^2

# Same assay, conditions: screened at 100 μg/cm^2; 24 h; strain not given
row,SMILES,"24 h % Mortality, 100 μg/cm^2"
1,O=C(Nc1cc(F)cc(F)c1)C(F)(F)C(F)(F)F [GMR188],81%
2,CC(C)(F)C(=O)Nc1ccccc1C(F)(F)F [MTFI-5-5A],3%
3,CC(C)(C)c1cccc(NC(=O)CCl)c1 [MTFI-5-7A],0%
4,CCCCC(=O)Nc1cccc(OC(F)(F)F)c1 [MTFI-5-9A],0%
